{
  "source": "paper PMC5987880",
  "about": "(The Journal of General Physiology, 2018)",
  "key": {"SthK [1]": {"target": "T1, SthK (Spirochaeta thermophila, UniProt G0GA88)", "T1 sequence (G0GA88 1-420)": "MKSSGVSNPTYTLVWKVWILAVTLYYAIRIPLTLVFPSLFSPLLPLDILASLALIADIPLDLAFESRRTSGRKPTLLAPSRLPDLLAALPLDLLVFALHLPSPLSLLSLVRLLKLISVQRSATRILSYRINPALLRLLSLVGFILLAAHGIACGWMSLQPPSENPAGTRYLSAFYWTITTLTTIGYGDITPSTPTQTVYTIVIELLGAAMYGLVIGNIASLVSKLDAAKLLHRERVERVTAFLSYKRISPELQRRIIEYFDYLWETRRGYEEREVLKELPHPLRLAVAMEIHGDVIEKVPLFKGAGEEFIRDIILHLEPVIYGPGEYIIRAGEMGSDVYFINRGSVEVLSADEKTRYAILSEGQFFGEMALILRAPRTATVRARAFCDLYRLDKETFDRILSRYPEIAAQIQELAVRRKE", "settings": "at 100 mV; ref Brams et al. (2014); cited from earlier work"}, "SthK [2]": {"target": "T1, SthK", "experiment": "Single-channel recordings of purified SthK in horizontal lipid bilayers", "format": "biochemical"}, "SthK [3]": {"target": "T1, SthK", "experiment": "86Rb+ flux", "format": "biochemical", "settings": "200 µM cyclic nucleotide, 5:3:2 DOPC:POPG:cardiolipin liposomes"}, "SthK [4]": {"target": "T1, SthK", "experiment": "Sequential-mixing stopped-flow fluorescence Tl+ flux assay with SthK liposomes", "format": "biochemical"}, "HCN4": {"target": "HCN4", "settings": "read-out: Kd for HCN4; ref Akimoto et al., 2014; cited from earlier work"}, "isolated CNBD of MloK1": {"target": "isolated CNBD of MloK1", "settings": "read-out: Kd for isolated CNBD of MloK1; ref Cukkemane et al., 2007; cited from earlier work"}, "[5]": {"target": "SthK, cyclic nucleotide-gated (CNG) channel from Spirochaeta thermophila, final expression construct SthK_(Δ421–430) (Spirochaeta thermophila)", "experiment": "cross-linking"}},
  "note": "Several values for one entry are separate records, joined by “and”; a condition that tells them apart may be missing. Equal values may be shown once.",
  "data": [
    {"compound": "Nc1ncnc2c1ncn2[C@@H]1O[C@@H]2COP(=O)(O)O[C@H]2[C@H]1O", "note": "[cAMP, cyclic adenosine monophosphate]", "values": [
      {"measurement": "Open probability Po in oocytes", "setting": "SthK [1]", "value": "≈ 0.14"},
      {"measurement": "Open probability Po at 0 mV", "setting": "SthK [2]; cAMP alone, 0 mV", "value": "≈ 0.1"},
      {"measurement": "Hill coefficient nH, bilayer recordings", "setting": "SthK [2]; open probability at 100 mV (Eq. 10)", "value": 3},
      {"measurement": "86Rb+ uptake through SthK liposomes", "setting": "SthK [3]", "value": "robust cAMP-dependent activity"},
      {"measurement": "Time to maximum activation of SthK", "setting": "SthK [4]; 200 µM cAMP", "value": "2 s and 1 to 2 s"},
      {"measurement": "Activation time constant τ1", "setting": "SthK [4]; 200 µM cAMP, delay 0.015-10 s, sum of two exponentials (amplitude 0.45)", "value": "≈ 0.05 s"},
      {"measurement": "Activation time constant τ2", "setting": "SthK [4]; 200 µM cAMP, delay 0.015-10 s, sum of two exponentials (amplitude 0.55)", "value": "≈ 1.04 s"},
      {"measurement": "Slow activation phase (as stated in the Discussion)", "setting": "SthK [4]; activation kinetics of SthK", "value": "~2", "unit": "s"}
    ]},
    {"compound": "Nc1nc2c(ncn2[C@@H]2O[C@@H]3COP(=O)(O)O[C@H]3[C@H]2O)c(=O)[nH]1", "note": "[cGMP, cyclic guanosine monophosphate]", "values": [
      {"measurement": "Open probability Po with cGMP", "setting": "SthK [2]; cGMP alone", "value": "< 0.003"}
    ]},
    {"compound": "Nc1ncnc2c1nc(SCCNc1ccc([N+](=O)[O-])c3nonc13)n2[C@@H]1O[C@@H]2COP(=O)(O)O[C@H]2[C@H]1O", "note": "[fcAMP, 8-NBD-cAMP]", "values": [
      {"measurement": "Kd", "setting": "HCN4", "value": 5000, "unit": "nM"},
      {"measurement": "Kd", "setting": "isolated CNBD of MloK1", "value": "~15.9", "unit": "nM"}
    ]},
    {"compound": "SthK, cyclic nucleotide-gated (CNG) channel from Spirochaeta thermophila, final expression construct SthK_(Δ421–430) (natural protein)", "values": [
      {"measurement": "stoichiometry N", "setting": "[5]", "value": 4}
    ]}
  ]
}
